Reference: BindingDB's records for doi:10.7270/Q2KH0KWR (Burnham Center For Chemical Genomics, 2012)
pIC50: −log10 of the molar value. One block for each molecule: values may come before it.

Target: T1, Tyrosine-protein phosphatase non-receptor type 5 (Homo sapiens, UniProt P54829)
T1 sequence (P54829 whole entry): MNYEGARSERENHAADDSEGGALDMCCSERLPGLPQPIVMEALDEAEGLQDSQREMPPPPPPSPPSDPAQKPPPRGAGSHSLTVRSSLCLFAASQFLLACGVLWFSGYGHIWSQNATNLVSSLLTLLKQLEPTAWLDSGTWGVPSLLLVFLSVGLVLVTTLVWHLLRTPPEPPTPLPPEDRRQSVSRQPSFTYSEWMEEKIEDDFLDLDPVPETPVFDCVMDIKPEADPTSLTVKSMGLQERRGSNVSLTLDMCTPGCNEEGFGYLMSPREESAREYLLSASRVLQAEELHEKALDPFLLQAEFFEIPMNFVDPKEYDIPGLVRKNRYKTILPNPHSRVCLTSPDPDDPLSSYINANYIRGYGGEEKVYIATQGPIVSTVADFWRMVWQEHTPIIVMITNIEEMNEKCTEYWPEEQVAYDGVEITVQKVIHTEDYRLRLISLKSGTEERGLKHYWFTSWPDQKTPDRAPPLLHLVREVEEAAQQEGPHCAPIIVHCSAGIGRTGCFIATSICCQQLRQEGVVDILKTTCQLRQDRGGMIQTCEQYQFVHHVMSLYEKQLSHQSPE
Experiment: PTPN5 inhibition measured colorimetrically – biochemical, colorimetric absorbance, orthogonal assay for STEP inhibitor project, dose response (AID 624207)

[1] = inactive by the depositor's call

SMILES: Clc1ccc(Cl)c(-c2nc(-c3ccncc3)no2)c1 [4-[5-(2,5-dichlorophenyl)-1,2,4-oxadiazol-3-yl]pyridine]
pIC50: < 4.10

SMILES: S=c1[nH]nc(-c2cccnc2)n1N=Cc1ccc(Br)s1 [4-[(E)-(5-bromothiophen-2-yl)methylideneamino]-3-pyridin-3-yl-1H-1,2,4-triazole-5-thione]
pIC50: < 4.10

SMILES: CCOC(=O)CN1C(=O)S/C(=C/c2ccc(OCc3ccc(C(=O)O)cc3)cc2)C1=O [4-[[4-[(E)-[3-(2-ethoxy-2-oxoethyl)-2,4-dioxo-5-thiazolidinylidene]methyl]phenoxy]methyl]benzoic acid]
pIC50: < 4.10

SMILES: O=C(N/N=C/c1cccc([N+](=O)[O-])c1)c1ccc(Br)cc1 [4-bromo-N-[(E)-(3-nitrophenyl)methylideneamino]benzamide]
pIC50 [1]: 4.67

SMILES: O=[N+]([O-])c1ccc(O)c(Nc2ncnc3ccccc23)c1 [4-nitro-2-(4-quinazolinylamino)phenol]
pIC50: < 4.10

SMILES: CCc1c(C)[nH]n(-c2ccc(Oc3ccccc3)c(S(=O)(=O)O)c2)c1=O [5-(4-ethyl-5-methyl-3-oxo-1H-pyrazol-2-yl)-2-phenoxybenzenesulfonic acid]
pIC50: < 4.10

SMILES: Cc1ccc(S(=O)(=O)Cc2ccc(C(=O)O)o2)cc1 [5-(tosylmethyl)-2-furoic acid]
pIC50: < 4.10

SMILES: O=C(N/N=C/c1ccc(Br)cc1)c1ccc(Br)o1 [5-bromanyl-N-[(E)-(4-bromophenyl)methylideneamino]furan-2-carboxamide]
pIC50 [1]: 4.62

SMILES: N#C/C(=C\c1ccc(OC(=O)c2ccc(Cl)s2)cc1)c1nc2ccccc2[nH]1 [5-chloro-2-thiophenecarboxylic acid [4-[(E)-2-(1H-benzimidazol-2-yl)-2-cyanoethenyl]phenyl] ester]
pIC50: < 4.10

SMILES: NC(=O)c1cc2ccccc2o/c1=N\NC(=O)c1ccccc1O [(2Z)-2-[[(2-hydroxyphenyl)-oxomethyl]hydrazinylidene]-1-benzopyran-3-carboxamide]
pIC50: 4.86

SMILES: OCCN1CCN(C(=S)c2ccc(Cl)c(Cl)c2)CC1 [(3,4-dichlorophenyl)-[4-(2-hydroxyethyl)-1-piperazinyl]methanethione]
pIC50 [1]: 4.66

SMILES: C=c1c(O)c(O)c(=C2C(=O)C(=O)C(C)C(=O)C2=O)c(O)c1O (stereo not drawn) [(3E)-5-hydroxy-6-methyl-3-(2,3,5-trihydroxy-4-methyl-6-oxo-1-cyclohexa-2,4-dienylidene)cyclohex-5-ene-1,2,4-trione]
pIC50: < 4.10

SMILES: S=C(c1ccc(Br)cc1)N1CCN(Cc2ccccc2)CC1 [(4-bromophenyl)-[4-(phenylmethyl)-1-piperazinyl]methanethione]
pIC50 [1]: 4.26

SMILES: CCOc1ccc(C(=S)N2CCN(C)CC2)cc1 [(4-ethoxyphenyl)-(4-methyl-1-piperazinyl)methanethione]
pIC50 [1]: 4.35

SMILES: O=C1C(=O)N(CCCO)C(c2ccc(Br)cc2)C1C(=O)c1ccc(Br)cc1 (stereo not drawn) [(4E)-5-(4-bromophenyl)-4-[(4-bromophenyl)-oxidanyl-methylidene]-1-(3-oxidanylpropyl)pyrrolidine-2,3-dione]
pIC50: 4.38

SMILES: COc1cc(C(=S)N2CCCCC2)ccc1O [(4Z)-2-methoxy-4-[piperidin-1-yl(sulfanyl)methylidene]cyclohexa-2,5-dien-1-one]
pIC50: 4.81

SMILES: Cc1ccc(C(=S)N2CCN(Cc3ccccc3)CC2)s1 [(5-methyl-2-thiophenyl)-[4-(phenylmethyl)-1-piperazinyl]methanethione]
pIC50 [1]: 4.49

SMILES: COc1cccc(N2[C@@H](CC(=O)O)c3ccc(/C=C/C(=O)O)cc3S2(=O)=O)c1 [(E)-3-[(3S)-3-(carboxymethyl)-2-(3-methoxyphenyl)-1,1-dioxo-3H-1,2-benzothiazol-6-yl]prop-2-enoic acid]
pIC50: < 4.10

SMILES: CCN(CC)P(=O)(NC(=O)C(Cl)(Cl)Cl)N(CC)CC [MLS000564159]
pIC50: 4.11

SMILES: S=C(c1cn(CCOc2ccccc2)c2ccccc12)N1CCCC1 [MLS-0109562.0001]
pIC50 [1]: 4.38

SMILES: CCOC(=O)c1sc2nc3c(SCC(=O)O)cc(C(=O)c4ccccc4O)cn3c(=O)c2c1C [MLS-0266851.0001]
pIC50: < 4.10

SMILES: NC(=NOC(=O)c1cccc2ccccc12)c1cccc([N+](=O)[O-])c1 [N'-(1-naphthoyloxy)-3-nitrobenzenecarboximidamide]
pIC50: < 4.10

SMILES: COc1cc(Cl)ccc1N=C(S)N(CCCN1CCOCC1)Cc1cn(C)c2ccccc12 [N'-(4-chloro-2-methoxyphenyl)-N-[(1-methyl-1H-indol-3-yl)methyl]-N-(3-morpholin-4-ylpropyl)thiourea]
pIC50 [1]: 4.46

SMILES: COc1ccc(Cl)cc1N=C(S)N(CCCN1CCOCC1)Cc1cn(C)c2ccccc12 [N'-(5-chloro-2-methoxyphenyl)-N-[(1-methyl-1H-indol-3-yl)methyl]-N-(3-morpholin-4-ylpropyl)thiourea]
pIC50 [1]: 4.43

SMILES: COc1cc(Cl)cc(C=NNC(=O)c2ccc3c(c2)OCO3)c1O [N'-[(E)-(3-chloro-5-methoxy-6-oxo-1-cyclohexa-2,4-dienylidene)methyl]-1,3-benzodioxole-5-carbohydrazide]
pIC50: 4.63

Other lines, results leading:

pIC50 [1]: 4.14
SMILES: O=C(NCCCn1ccnc1)C(Cc1ccccc1)N1C(=O)c2ccccc2C1=O (stereo not drawn) [MLS000040026]

pIC50: < 4.10
SMILES: Cc1nnc2sc(-c3ccc(NC(=O)c4ccc(-c5ccc(Cl)cc5Cl)o4)cc3)nn12 [MLS000050448]

pIC50: < 4.10
SMILES: CCc1ccc(OCC(=O)Nc2ccc(-c3nc4ccccc4o3)c(O)c2)cc1 [MLS000109444]

pIC50: < 4.10
SMILES: C=CC1=C(C(=O)O)N2C(=O)C(NC(=O)Cc3ccccc3)C2SC1 (stereo not drawn) [MLS000123928]

pIC50 [1]: 4.53
SMILES: COc1ccccc1NS(=O)(=O)c1cc(NC(=S)NCCN2CCOCC2)ccc1N1CCOCC1 [MLS000409155]

pIC50: 4.14
SMILES: S=C1N=C2C(=C3SCCS3)CCCC2C(c2ccccc2)N1 (stereo not drawn) [MLS000516376]

pIC50: < 4.10
SMILES: CCOc1ccc(C(=O)Nc2cc(-c3nc4ccccc4[nH]3)ccc2Cl)cc1[N+](=O)[O-] [MLS000574482]

pIC50 [1]: 4.59
SMILES: O=C(N/N=C/c1ccc(OC(=O)c2cccs2)cc1)c1cccc(F)c1 [MLS000576933]

pIC50 [1]: 4.24
SMILES: OCCN1CCN(C(=S)c2ccc(Br)cc2)CC1 [MLS000577024]

pIC50: < 4.10
SMILES: COCCN(C(=S)Nc1c(C)cc(C)cc1C)C(C)c1cccnc1 (stereo not drawn) [MLS000584539]

pIC50: 4.80
SMILES: O=C(N/N=C/c1ccc(Cl)c([N+](=O)[O-])c1)c1ccc2c(c1)OCCO2 [MLS000587937]

pIC50 [1]: 4.59
SMILES: CCN1CCN(C(=S)c2ccc(Cl)cc2)CC1 [MLS000594090]

pIC50: < 4.10
SMILES: NS(=O)(=O)c1ccc(N/C(S)=N\CCc2ccccc2)cc1 [MLS000621468]

pIC50: 4.47
SMILES: CCN1CCN(C(=S)c2ccc(O)cc2)CC1 [MLS000621546]

pIC50: 4.90
SMILES: CN1CCN(C(=S)C(=O)Nc2ccc(Br)cc2)CC1 [MLS000665240]

pIC50 [1]: 4.24
SMILES: CN(C)c1ccc(C(=S)N2CCN(Cc3ccccc3)CC2)cc1 [MLS000679877]

pIC50: 4.88
SMILES: COC(=O)Nc1sc2c(c1C(N)=O)CCC(C)C2 (stereo not drawn) [MLS000683996]

pIC50: < 4.10
SMILES: O=C(N/N=C/c1coc2ccccc2c1=O)c1cc2ccccc2o1 [MLS000700471]

pIC50: 4.70
SMILES: O=C(COc1ccc(/C=N/NC(=O)c2ccc(O)cc2)cc1)Nc1cccc([N+](=O)[O-])c1 [MLS000714465]

pIC50: < 4.10
SMILES: COc1ccc(NC(=S)N(CCCN2CCC(C)CC2)Cc2cccs2)cc1Cl [MLS000729725]

pIC50: < 4.10
SMILES: COc1ccc2cc3c(N)nn(C(=O)c4cccc(F)c4)c3nc2c1 [MLS000731294]

pIC50 [1]: 4.40
SMILES: N#CNc1nc(O)cc(=O)[nH]1 [MLS000737363]

pIC50 [1]: 4.38
SMILES: Cc1cc(C)c2nc(-c3ccccn3)cc(C(=O)Nc3ccc(S(=O)(=O)Nc4onc(C)c4C)cc3)c2c1 [MLS000862518]

pIC50: 5.15
SMILES: O=C(Nc1cc([N+](=O)[O-])ccc1O)c1cccc(C(=O)Nc2cc([N+](=O)[O-])ccc2O)c1 [MLS001008494]

pIC50: < 4.10
SMILES: CC(=O)N1CCOc2ccc(S(=O)(=O)NCc3ccc(F)cc3)cc21 [MLS001117284]

pIC50: 4.80
SMILES: CC(C(=O)Nc1ccc(O)cc1C(=O)O)N1C(=O)/C(=C\c2cccs2)SC1=S (stereo not drawn) [MLS001157883]

pIC50 [1]: 4.60
SMILES: CC(C)(C)C(=O)Nc1ccc(C(=O)Nc2cccc(Oc3ccc(C(=O)O)c(C(=O)O)c3)c2)cc1 [MLS001181252]

pIC50 [1]: 4.12
SMILES: NS(=O)(=O)c1ccc(NC(=S)N2CCC(Cc3ccccc3)CC2)cc1 [MLS001196239]

pIC50 [1]: 4.62
SMILES: Cc1c(CC(=O)O)c(=O)oc2c(C)c(OCc3ccc(F)cc3Cl)ccc12 [MLS001213411]

pIC50 [1]: 4.49
SMILES: Cc1c(CC(=O)NCCCCCC(=O)O)c(=O)oc2c(C)c3oc4c(c3cc12)CCCC4 [MLS001214831]

pIC50 [1]: 4.55
SMILES: CCOc1ccc(/C=N/NC(=O)c2cc3c(OC)cccc3[nH]2)cc1 [MLS001216500]

pIC50 [1]: 4.53
SMILES: CC(=NNC(=O)c1ccccc1O)c1ccc(NC(=O)Cc2ccccc2)cc1 [MLS001224813]

pIC50: < 4.10
SMILES: COc1ccc(-c2ccc(NC(=O)c3ccc(Br)o3)cc2)nn1 [MLS001236653]

pIC50: 5.30
SMILES: CSc1ccc(CN=Nc2ccc(S(=O)(=O)Nc3ccccc3C(=O)O)cc2[N+](=O)[O-])cc1 [MLS002245633]

pIC50 [1]: 4.19
SMILES: Sc1ncnc2c1ncn2-c1ccc(Cl)cc1 [MLS002638664]

pIC50: 4.80
SMILES: O=C(N/N=C/C1C=CC=CC1=O)c1cccc([N+](=O)[O-])c1 (stereo not drawn) [MLS002667988]

pIC50: < 4.10
SMILES: O=C(O)Cc1cccc(O)c(=O)c1C(=O)O [MLS002703575]

pIC50: < 4.10
SMILES: O=C(Nc1cccc2c(=O)[nH][nH]c(=O)c12)c1ccc([N+](=O)[O-])cc1 [MLS003171605]
